One may read the IC50 as the point on the concentration scale where inhibition reaches its midpoint.

The values below come from patent US20240158392A1 (Janssen Biotech, Inc., priority 2021, published 2024).

Experiment [1] concerns the target T1, SIK2 (Homo sapiens, UniProt Q9H0K1). The experiment can be described thus: SIK2 Enzymatic Assay High Version 2 (High ATP). The class given is biochemical. The method, boiled down:
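At room temperature, enzyme (6 nM, 2× final) was preincubated with compound for 30 min, then 6 mM ATP and 400 μM HDAC5tide (both 2× final) were added for 2 h. ADP formed was measured by ADP-Glo Max (2 h reagent, 1 h detection) using luminescence.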

Experiment [2] deals with T1, SIK2. Kind of experiment: SIK2 Enzymatic Assay Version 1 (ADP Glo). Format: biochemical. To be noted: enzyme 0.6 nM, 160 μM ATP and 140 μM HDAC5tide (each 2× final concentration); 30 minutes pre-incubation, 4 hours; ADPGlo luminescence; read-out: SIK2 ADP Glo IC50 (μM) (Test Example 1). Summed up:
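Room-temperature ADP-Glo luminescence assay; SIK2 added at 0.6 nM (2× final) and preincubated with compound for 30 min. Reaction stopped with ADP-Glo Reagent for 40 min, then detection reagent for at least 30 min; no-peptide (ATP-only) wells served as negative control.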

T1 sequence (Q9H0K1 whole entry, species assumed): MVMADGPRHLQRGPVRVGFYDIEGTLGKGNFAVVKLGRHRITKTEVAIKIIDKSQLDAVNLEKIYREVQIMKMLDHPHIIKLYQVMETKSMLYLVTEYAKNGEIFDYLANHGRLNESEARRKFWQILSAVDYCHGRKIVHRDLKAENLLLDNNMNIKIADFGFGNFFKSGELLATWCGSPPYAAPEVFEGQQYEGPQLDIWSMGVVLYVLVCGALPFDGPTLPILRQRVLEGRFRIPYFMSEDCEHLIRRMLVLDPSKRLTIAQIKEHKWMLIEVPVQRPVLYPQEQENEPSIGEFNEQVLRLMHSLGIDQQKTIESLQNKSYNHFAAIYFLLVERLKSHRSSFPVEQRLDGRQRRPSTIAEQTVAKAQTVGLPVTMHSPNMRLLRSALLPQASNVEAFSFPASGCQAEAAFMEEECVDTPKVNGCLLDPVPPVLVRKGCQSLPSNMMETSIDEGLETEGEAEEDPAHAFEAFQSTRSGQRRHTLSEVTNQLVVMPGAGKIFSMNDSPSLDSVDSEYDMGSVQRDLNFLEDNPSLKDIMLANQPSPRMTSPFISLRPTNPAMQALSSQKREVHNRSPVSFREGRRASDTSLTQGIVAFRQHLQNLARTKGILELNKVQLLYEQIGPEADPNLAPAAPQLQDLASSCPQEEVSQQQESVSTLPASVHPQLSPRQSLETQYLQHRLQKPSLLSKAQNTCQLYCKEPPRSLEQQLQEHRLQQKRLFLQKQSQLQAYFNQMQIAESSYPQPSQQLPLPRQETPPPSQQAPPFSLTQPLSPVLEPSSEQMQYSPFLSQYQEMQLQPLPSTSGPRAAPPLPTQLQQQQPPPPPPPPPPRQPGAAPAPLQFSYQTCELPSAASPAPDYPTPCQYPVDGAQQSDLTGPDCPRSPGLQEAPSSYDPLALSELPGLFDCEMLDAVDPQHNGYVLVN

For the molecule `Cc1ccnc(Nc2cc3cc(-c4cc(C)ncc4OC[C@@H]4CNCCO4)ccn3n2)c1` [Example 427, 5-[2-methyl-5-[[(2S)-morpholin-2-yl]methoxy]-4-pyridyl]-N-(4-methyl-2-pyridyl)pyrazolo[1,5-a]pyridin-2-amine], the 50% inhibitory concentration (IC50) against SIK2 [1] turned out to be 11.5 nM; at SIK2 [2] it was 0.0012 µM.

In the case of `Cc1cc(-c2ccn3nc(Nc4ccccn4)cc3c2)c(OC[C@H]2CNCCO2)cn1` [Example 428, 5-[2-methyl-5-[[(2R)-morpholin-2-yl]methoxy]-4-pyridyl]-N-(2-pyridyl)pyrazolo[1,5-a]pyridin-2-amine], the half-inhibitory concentration (IC50) on SIK2 [1] was 20.8 nM; at SIK2 [2] it was 0.00201 µM.

`Cc1cc(-c2ccn3nc(Nc4cc(C)nc(C)n4)cc3c2)c(OC[C@@H]2CNCCO2)cn1` [Example 432, N-(2,6-dimethylpyrimidin-4-yl)-5-[2-methyl-5-[[(2S)-morpholin-2-yl]methoxy]-4-pyridyl]pyrazolo[1,5-a]pyridin-2-amine]: the IC50 was determined as 1.71 nM at SIK2 [1] and 0.000345 µM at SIK2 [2].

For `CC#Cc1cc(-c2ccn3nc(NC(=O)C4CC4)cc3c2)c(OC[C@@H]2CCN(C)C2)cn1` [Example 441, N-[5-[5-[[(3R)-1-methylpyrrolidin-3-yl]methoxy]-2-prop-1-ynyl-4-pyridyl]pyrazolo[1,5-a]pyridin-2-yl]cyclopropanecarboxamide], the IC50 against SIK2 [1] is 12.1 nM; at SIK2 [2], 0.00106 µM.

On to `CC#Cc1cc(-c2ccn3nc(NC(=O)C4CC4)cc3c2)c(OC2CN(C)C2)cn1` [Example 442, N-[5-[5-(1-methylazetidin-3-yl)oxy-2-prop-1-ynyl-4-pyridyl]pyrazolo[1,5-a]pyridin-2-yl]cyclopropanecarboxamide], for which the half-maximal inhibitory concentration (IC50) is 3.75 nM on SIK2 [1] and 0.000323 µM at SIK2 [2].

As to `Cc1cc(-c2ccn3nc(NC(=O)C4CC4)cc3c2)c(O[C@H]2C[C@](C)(N)C2)cn1` [Example 444, N-(5-(5-((1r,3r)-3-amino-3-methylcyclobutoxy)-2-methylpyridin-4-yl)pyrazolo[1,5-a]pyridin-2-yl)cyclopropanecarboxamide], the results for the IC50 on SIK2 [1] and on SIK2 [2] were 1.63 nM and 0.000605 µM, respectively.

Turning to `CC(C)(C#N)COc1cnc(OC(F)F)cc1-c1ccn2nc(Nc3ccn4ncnc4c3)cc2c1` [Example 475, 3-[[6-(difluoromethoxy)-4-[2-([1,2,4]triazolo[1,5-a]pyridin-7-ylamino)pyrazolo[1,5-a]pyridin-5-yl]-3-pyridyl]oxy]-2,2-dimethyl-propanenitrile], the IC50 against SIK2 [1] turned out to be 27.1 nM; on SIK2 [2], 0.00205 µM.

Turning to `N#Cc1ccc(OC[C@@H]2CCNC2)c(-c2ccn3nc(NC(=O)C4CC4)cc3c2)c1` [Example 476, N-[5-[5-cyano-2-[[(3R)-pyrrolidin-3-yl]methoxy]phenyl]pyrazolo[1,5-a]pyridin-2-yl]cyclopropanecarboxamide], the IC50 on SIK2 [1] is 55.6 nM; at SIK2 [2], 0.00386 µM.

Turning to `Cc1cc(-c2ccn3nc(Nc4cc(C)nc(C)n4)cc3c2)c(O[C@H]2CC[C@H](O)CC2)nn1` [Example 488, 4-[4-[2-[(2,6-dimethylpyrimidin-4-yl)amino]pyrazolo[1,5-a]pyridin-5-yl]-6-methyl-pyridazin-3-yl]oxycyclohexanol], the IC50 came out at 116 nM against SIK2 [1] and 0.00294 µM at SIK2 [2].

For `CN1CC[C@@H](COc2cnccc2-c2ccn3nc(NC(=O)C4CC4)cc3c2)C1` [Example 489, N-[5-[3-[[(3R)-1-methylpyrrolidin-3-yl]methoxy]-4-pyridyl]pyrazolo[1,5-a]pyridin-2-yl]cyclopropanecarboxamide], the IC50 came out at 10.3 nM against SIK2 [1] and 0.000791 µM on SIK2 [2].

Consider `CN1CC[C@@H](COc2cnc(Cl)cc2-c2ccn3nc(NC(=O)C4CC4)cc3c2)C1` [Example 490, N-[5-[2-chloro-5-[[(3R)-1-methylpyrrolidin-3-yl]methoxy]-4-pyridyl]pyrazolo[1,5-a]pyridin-2-yl]cyclopropanecarboxamide], for which the results for the half-maximal inhibitory concentration (IC50) at SIK2 [1] and on SIK2 [2] were 17.9 nM and 0.0013 µM, respectively.

As to `O=C(Nc1cc2cc(-c3cc(OC(F)F)ncc3OC[C@@H]3CNCCO3)ccn2n1)C1CC1` [Example 503, N-[5-[2-(difluoromethoxy)-5-[[(2S)-morpholin-2-yl]methoxy]-4-pyridyl]pyrazolo[1,5-a]pyridin-2-yl]cyclopropanecarboxamide], the IC50 against SIK2 [1] was found to be 68.2 nM; on SIK2 [2], 0.0038 µM.

For the molecule `Cc1cc(-c2cn3cc(NC(=O)C4CC4)nc3cn2)c(OCC(C)(C)C#N)cn1` [Example 508, N-[6-[5-(2-cyano-2-methyl-propoxy)-2-methyl-4-pyridyl]imidazo[1,2-a]pyrazin-2-yl]cyclopropanecarboxamide], the half-inhibitory concentration (IC50) against SIK2 [1] was 53.7 nM; at SIK2 [2], 0.00366 µM.

Turning to `Cc1cc(-c2ccn3nc(NC(=O)C4CC4)cc3c2)c(OC[C@@H]2CCN(C)C2)cn1` [Example 509, N-[5-[2-methyl-5-[[(3R)-1-methylpyrrolidin-3-yl]methoxy]-4-pyridyl]pyrazolo[1,5-a]pyridin-2-yl]cyclopropanecarboxamide], the half-inhibitory concentration (IC50) stood at 55.9 nM at SIK2 [1] and 0.00321 µM at SIK2 [2].

As to `CN1[C@@H]2COC[C@H]1CC(Nc1cnc(C#N)cc1-c1ccn3nc(NC(=O)C4CC4)cc3c1)C2` (stereo partly drawn) [Example 565, N-[5-[2-cyano-5-[[(1R,5S)-9-methyl-3-oxa-9-azabicyclo[3.3.1]nonan-7-yl]amino]-4-pyridyl]pyrazolo[1,5-a]pyridin-2-yl]cyclopropanecarboxamide], the half-maximal inhibitory concentration (IC50) on SIK2 [1] is 88.2 nM; on SIK2 [2], 0.00384 µM.

For `Cn1ccc(Nc2cc3cc(-c4cc(C#N)ccc4OC[C@H]4CNCCO4)ccn3n2)n1` [Example 566, 3-[2-[(1-methylpyrazol-3-yl)amino]pyrazolo[1,5-a]pyridin-5-yl]-4-[[(2R)-morpholin-2-yl]methoxy]benzonitrile], the half-inhibitory concentration (IC50) stood at 101 nM on SIK2 [1] and 0.00389 µM on SIK2 [2].

`Cc1cc(-c2ccn3nc(Nc4ccccn4)cc3c2)c(OC2CN(C)C2)cn1` [Example 567, 5-[2-methyl-5-(1-methylazetidin-3-yl)oxy-4-pyridyl]-N-(2-pyridyl)pyrazolo[1,5-a]pyridin-2-amine]: the IC50 was 251 nM at SIK2 [1] and 0.00757 µM on SIK2 [2].

Regarding `Cc1cc(-c2ccn3nc(Nc4cnn(C)c4)cc3c2)c(OC2CN(C)C2)cn1` [Example 568, 5-[2-methyl-5-(1-methylazetidin-3-yl)oxy-4-pyridyl]-N-(1-methylpyrazol-4-yl)pyrazolo[1,5-a]pyridin-2-amine], the concentration for half-maximal inhibition (IC50) at SIK2 [1] was found to be 93.3 nM; at SIK2 [2], 0.00471 µM.

With `CCOc1cnc(C#N)cc1-c1ccn2nc(NC(=O)C3CC3)cc2c1` [Example 583, N-[5-(2-cyano-5-ethoxy-4-pyridyl)pyrazolo[1,5-a]pyridin-2-yl]cyclopropanecarboxamide], the IC50 on SIK2 [1] is 61.1 nM; on SIK2 [2], 0.00412 µM.

Regarding `N#Cc1cc(-c2ccn3nc(NC(=O)C4CC4)cc3c2)c(OCC2CC2)cn1` [Example 584, N-[5-[2-cyano-5-(cyclopropylmethoxy)-4-pyridyl]pyrazolo[1,5-a]pyridin-2-yl]cyclopropanecarboxamide], the figures for the half-inhibitory concentration (IC50) on SIK2 [1] and at SIK2 [2] were 35.3 nM and 0.00253 µM, respectively.

For the molecule `N#Cc1cc(-c2ccn3nc(NC(=O)C4CC4)cc3c2)c(OC[C@@H]2CCCNC2)cn1` [Example 585, N-[5-[2-cyano-5-[[(3R)-3-piperidyl]methoxy]-4-pyridyl]pyrazolo[1,5-a]pyridin-2-yl]cyclopropanecarboxamide], the half-maximal inhibitory concentration (IC50) against SIK2 [1] was determined as 16.9 nM; on SIK2 [2], 0.00148 µM.

As to `N#Cc1cc(-c2ccn3nc(NC(=O)C4CC4)cc3c2)c(OC[C@H]2CC[C@H](N)CC2)cn1` [Example 586, N-(5-(5-(((1r,4r)-4-aminocyclohexyl)methoxy)-2-cyanopyridin-4-yl)pyrazolo[1,5-a]pyridin-2-yl)cyclopropanecarboxamide], the values for the half-maximal inhibitory concentration (IC50) against SIK2 [1] and on SIK2 [2] were 8.63 nM and 0.00095 µM, respectively.

In the case of `N#Cc1cc(-c2ccn3nc(NC(=O)C4CC4)cc3c2)c(OC2CC3(CNC3)C2)cn1` [Example 587, N-[5-[5-(6-azaspiro[3.3]heptan-2-yloxy)-2-cyano-4-pyridyl]pyrazolo[1,5-a]pyridin-2-yl]cyclopropanecarboxamide], the IC50 is 87 nM against SIK2 [1] and 0.00381 µM at SIK2 [2].

For the molecule `N#Cc1cc(-c2ccn3nc(NC(=O)C4CC4)cc3c2)c(OC[C@@H]2CCN(CC(F)(F)F)C2)cn1` [Example 588, N-[5-[2-cyano-5-[[(3R)-1-(2,2,2-trifluoroethyl)pyrrolidin-3-yl]methoxy]-4-pyridyl]pyrazolo[1,5-a]pyridin-2-yl]cyclopropanecarboxamide], the figures for the half-inhibitory concentration (IC50) against SIK2 [1] and on SIK2 [2] were 59.6 nM and 0.00342 µM, respectively.

On to `N#Cc1cc(-c2ccn3nc(NC(=O)C4CC4)cc3c2)c(OC[C@@H]2CCN(C3CC3)C2)cn1` [Example 589, N-[5-[2-cyano-5-[[(3R)-1-cyclopropylpyrrolidin-3-yl]methoxy]-4-pyridyl]pyrazolo[1,5-a]pyridin-2-yl]cyclopropanecarboxamide], for which the half-inhibitory concentration (IC50) against SIK2 [1] came to 75.9 nM; at SIK2 [2] it was 0.00625 µM.

Take `N#Cc1cc(-c2ccn3nc(NC(=O)C4CC4)cc3c2)c(OC2CN(CC(F)(F)F)C2)cn1` [Example 590, N-[5-[2-cyano-5-[1-(2,2,2-trifluoroethyl)azetidin-3-yl]oxy-4-pyridyl]pyrazolo[1,5-a]pyridin-2-yl]cyclopropanecarboxamide]: the half-inhibitory concentration (IC50) amounted to 19.5 nM at SIK2 [1] and 0.00124 µM at SIK2 [2].

On to `N#Cc1cc(-c2ccn3nc(NC(=O)C4CC4)cc3c2)c(OC[C@H]2C[C@H](N)C2)cn1` [Example 591, N-(5-(5-(((1r,3r)-3-aminocyclobutyl)methoxy)-2-cyanopyridin-4-yl)pyrazolo[1,5-a]pyridin-2-yl)cyclopropanecarboxamide], for which the IC50 came out at 7.9 nM at SIK2 [1] and 0.000647 µM on SIK2 [2].
